Assay results as given in US20050221328A1, “Inhibitors of inflammatory gene activity and cholesterol biosynthesis” (Wyeth, priority 2002, published 2005).
“Also recorded” adds a separate entry of the source.

Key:
[1] = tested on: Fnk, JAB, LIX, bcl-3 and SHP; assay: Liver expression of Fnk, JAB, LIX, bcl-3 and SHP by realtime PCR after estrogen receptor ligand pretreatment and IL-1β; details: for effect on regulation of liver Fnk, JAB, LIX, bcl-3 and SHP expression vs IL-1β alone: 1 or 10 mg/kg/day E2, 30 mg/kg/day genistein, 10 mg/kg/day ICI182780, plus IL-1β
Protocol: Referring to FIG. 3a, to distinguish these two mechanisms, the IL-1β fold induction of Fnk, JAB, LIX, and bcl-3 and the IL-1β fold repression of SHP was quantified in animals pretreated with vehicle (black bars) or 100 ug/kg/day EE (grey bars). Liver RNA levels of each gene (mean +/−SEM) were determined by realtime PCR of RNA from each individual animal.
Referring to FIGS. 4a, 4b, 4c, 4d and 4e, experiments were conducted to determine whether EE blocks IL-1β induction of gene expression by an estrogen receptor (ER) dependent mechanism. Estrogens can regulate gene expression by many mechanisms including ER independent pathways such as antioxidant mechanisms. […] Liver expression levels of Fnk, JAB, LIX, bcl-3 and SHP (mean +/−SEM) were determined by realtime PCR.
Referring to FIGS. 5a, 5b, 5c, 5d, and 5e, experiments were conducted to determine whether ERα is required for EE regulation of gene expression in the liver. To determine whether ERα or ERβ mediated the EE effects on IL-1β gene expression in the liver, C57BL/6 wild type mice, C57BL/6 ERαKO mice, or 129 ERβKO mice were pretreated with vehicle (black bars) or […] EE (gray bars) for 5 days followed by a 1 hour treatment with IL-1β. Liver expression levels of Fnk, JAB, LIX, bcl-3, and SHP (mean +/−SEM) were quantified by realtime PCR, with expression in animals receiving vehicle+PBS defined as 1.0.

SHP [2] = assay: Regulation of SHP expression in mouse liver, six weeks treatment, real time PCR; type: in vivo; details: for liver SHP mRNA levels, WT animals: ovariectomized wildtype mice, sc six weeks, 10 ug/kg/day E2, 5 mg/kg/day tamoxifen, 5 mg/kg/day PPT
Protocol: Several experiments were conducted to investigate the regulation of SHP expression, as follows. Referring to FIG. 9, ERα regulation of SHP expression in mouse liver was studied. […] Liver expression of SHP was monitored by real time PCR, with normalization for GAPDH expression. […] ICI182780 inhibited this induction.

SHP [3] = assay: Regulation of SHP by estrogen in the rat liver, real time PCR; type: in vivo; details: ovariectomized Sprague-Dawley rats, 10 ug/kg/day E2 or 5 mg/kg/day PPT, six weeks
Source text: Liver expression of SHP was monitored by real time PCR, with normalization for GAPDH expression.

human SHP promoter = assay: hSHP promoter luciferase reporter in HepG2 or 293 cells cotransfected with human ERα; type: cell-based; details: for SHP promoter activity, compound alone: 10 nM E2 or 1 uM compound, 24 hours
Protocol: Referring to FIGS. 11a and 11b, ERα regulation of hSHP promoter activity in human cells was examined. Human HepG2 or 293 cells were cotransfected with a control SV40 driven β-galactosidase plasmid, a luceriferase plasmid driven by 1.4 kb of the human SHP promoter, and an expression plasmid encoding either no protein or human ERα. […] Cell extracts were then analyzed for luciferase activity normalized for β-galactosidase activity.
Referring to FIGS. 12a, 12b, and 12c, ERα regulation of hSHP promoter activity in 293 cells was examined. Referring to FIGS. 12a and 12b, 293 cells were cotransfected with a control SV4O driven […] plasmid, a luceriferase plasmid driven by either 1.4 kb of the human SHP promoter or a synthetic 2×ERE/TK promoter, and an expression plasmid for human ERα. […] Cell extracts were then analyzed for luciferase activity with normalization for β-galaetosidase activity.

[4] = tested on: prostaglandin D synthase, IPS; assay: Liver expression of prostaglandin D synthase and IPS; type: in vivo; details: mouse liver; 30 mg/kg/day genistein, 5 mg/kg/day raloxifene
Source text: Referring to FIGS. 6a and 6b, experiments were constructed and performed to establish that EE induction of gene expression is not required for ERα inhibition of IL-1β gene inductions. […] The expression level in the vehicle+PBS treated mice was defined as 1.0. […] However, there was no correlation between the ability of these compounds to inhibit IL-1β gene induction (EE>genistein>raloxifene) and the ability of these compounds to stimulate prostaglandin D synthase expression (EE>>raloxifene>genistein).

SHP [5] = assay: IL-1β inhibition of SHP expression in HepG2 cells (realtime PCR); type: cell-based, human; details: 100 U/ml IL-1β, 3 and 6 hours, p<0.05 vs time 0
Protocol: Referring to FIG. 2, IL-1β inhibition of SHP expression in HepG2 cells was examined as follows. IL-1β is typically not associated with repression of gene expression. To verify a direct IL-1β mediated repression of SHP expression, HepG2 cells were treated with 100 U/ml IL-1β. Total RNA prepared at various times afterward was analyzed for SHP expression by using realtime PCR. […] This was not due to a general decrease in cell viability as SHP mRNA levels returned to baseline levels by 9 hours following IL-1β treatment.

mouse liver = details: GeneChip, 1 h after 20 ug/kg IL-1β ip, pretreated 5 days with vehicle or 100 ug/kg/day EE sc, vehicle+PBS=1.0;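 note: ovariectomized C57BL/6 mice, liver polyA RNA profiled, values are fold expression relative to vehicle plus PBS, averaged over two independent experiments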
Protocol: Experiments were conducted to evaluate IL-1β regulation of gene expression in the mouse liver. Ovariectomized C57BL/6 mice were pretreated by subcutaneous administration of either corn oil/ethanol vehicle or 100 ug/kg/day ethynylestradiol (EE) for 5 days. On the fifth day, the mice received an intraperitoneal injection of either PBS or 20 ug/kg IL-1β in PBS. One hour later the livers were removed and polyA RNA was prepared. Global gene expression was determined by analysis using murine 11K GeneChips from Affymetrix. For each gene, the level of expression in animals receiving vehicle pretreatment plus PBS was defined as 1.0, with the expression levels in the mice receiving vehicle pretreatment±IL-1β or EE pretreatment±IL-1β defined relative to this. The results shown are the mean from two independent experiments.
The fold regulation of each gene is plotted for animals receiving vehicle pretreatment x-axis) vs. animals receiving pretreatment with EE (y-axis). Genes with IL-1β induction unaffected by EE pretreatment would lie along the dotted diagonal.

[6] = mice, 100 ug/kg/day EE, 5 mg/kg/day raloxifene

Molecule: C[C@]12CC[C@@H]3c4ccc(O)cc4CC[C@H]3[C@@H]1CC[C@@H]2O [E2, 17β-estradiol]
- effect on regulation of liver Fnk, JAB, LIX, bcl-3 and SHP expression vs IL-1β alone [1, 6]: greatest effect
- expression of SHP in ERαKO or ERαβKO mice (SHP [2]; 10 ug/kg/day E2, six weeks): did not induce
- expression of SHP in ERβKO mice (SHP [2]; 10 ug/kg/day E2, six weeks): still induced
- liver SHP mRNA levels, WT animals (SHP [2]): induced
- liver SHP expression, rat (SHP [3]): significantly induced
- SHP promoter activity, compound alone (human SHP promoter; 293 cells with human ERα): stimulated
- SHP promoter activity (human SHP promoter; HepG2 or 293 cells, 10 nM E2 24 hours, only in cells expressing ERα): induced

Molecule: CCCc1c(-c2ccc(O)cc2)nn(-c2ccc(O)cc2)c1-c1ccc(O)cc1 [PPT]
- liver SHP mRNA levels, WT animals (SHP [2]): induced
- liver SHP expression, rat (SHP [3]): significantly induced

Molecule: O=C(c1ccc(OCCN2CCCCC2)cc1)c1c(-c2ccc(O)cc2)sc2cc(O)ccc12 [raloxifene]
- SHP expression in liver ([1]; mice, 5 mg/kg/day raloxifene (FIG. 4)): did not increase
- effect on regulation of liver Fnk, JAB, LIX, bcl-3 and SHP expression vs IL-1β alone [1, 6]: magnitude was not as great
- inhibition of IL-1β induction of Fnk, JAB, LIX and bcl-3 ([1]; mouse liver, 100 ug/kg/day EE, 30 mg/kg/day genistein, 5 mg/kg/day raloxifene): able to inhibit; also recorded: inhibited
- induction of IPS [4]: very weak induction
- SHP promoter activity, compound alone (human SHP promoter; 293 cells with human ERα): inactive alone
- effect on E2 activity at SHP promoter (human SHP promoter; 293 cells with human ERα, 1 uM compound plus 10 nM E2): antagonized

Molecule: IL-1: cytokine IL-1β, injected intraperitoneally in PBS or added to HepG2 cells
- IL-1 repression of SHP expression ([1]; mouse liver, realtime PCR, vehicle treated or 100 ug/kg/day EE treated animals): 86%
- IL-1 induction of bcl-3 ([1]; mouse liver, realtime PCR, vehicle treated or 100 ug/kg/day EE treated mice, IL-1 vs PBS): 6.2 fold
- SHP expression (SHP [5]): significantly reduced
- IL-1 Induction A20 (Tnfaip3) (mouse liver): 14.0 fold
- IL-1 Induction B94, TNF-α induced protein 2 (Tnfaip2) (mouse liver): 17.1 fold
- IL-1 Induction C/EBPδ (Cebpd) (mouse liver): 7.0 fold
- IL-1 Induction CD14 (Cd14) (mouse liver): 3.5 fold
- IL-1 Induction CD83 (Cd83) (mouse liver): 6.2 fold
- IL-1 Induction E-selectin (Sele) (mouse liver): 7.2 fold
- IL-1 Induction Ets transcription factor ELF3 (Elf3) (mouse liver): 22.5 fold
- IL-1 Induction G0/G1 switch gene 2 (G0s2) (mouse liver): 0.11 fold
- IL-1 Induction GTP binding protein IRG-47 (lfi47) (mouse liver): 5.4 fold
- IL-1 Induction Gadd45 (Gadd45a) (mouse liver): 10.9 fold
- IL-1 Induction Glvr-1 (Slc20a1) (mouse liver): 3.9 fold
- IL-1 Induction H-2Ld (H-2L) (mouse liver): 8.2 fold
- IL-1 Induction ICAM-1 (lcam1) (mouse liver): 40.9 fold
- IL-1 Induction IL-1m (Il1m) (mouse liver): 23.6 fold
- IL-1 Induction IL-15 receptor (Il15ra) (mouse liver): 9.2 fold
- IL-1 Induction IxBa (Nfkbia) (mouse liver): 8.7 fold
- IL-1 Induction JAB, suppressor of cytokine signaling 1 (Cish1) (mouse liver): 7.3 fold
- IL-1 Induction JE/MCP-1 (Scya2) (mouse liver): 82.3 fold
- IL-1 Induction LIX (Scyb5) (mouse liver): 5.2 fold
- IL-1 Induction LPS inducible C—C chemokine receptor related (AF030185) (mouse liver): 6.3 fold
- IL-1 Induction M-CSF (Csf1) (mouse liver): 32.8 fold
- IL-1 Induction MARCKS-like macrophage protein (Mlp) (mouse liver): 4.8 fold
- IL-1 Induction MIG (Scyb9) (mouse liver): 15.0 fold
- IL-1 Induction MIP2 (Scyb2) (mouse liver): 60.1 fold
- IL-1 Induction MIP-1 gamma (Scya9) (mouse liver): 2.9 fold
- IL-1 Induction MyD118 (GADD45b) (mouse liver): 24.3 fold
- IL-1 Induction NF-E2 related factor 2 (NRF2) (Nfe212) (mouse liver): 5.2 fold
- IL-1 Induction NF-kappa-B p105 (Nfkb1) (mouse liver): 13.8 fold
- IL-1 Induction NFkB p100 (Nfkb2) (mouse liver): 4.0 fold
- IL-1 Induction PAI-1 (Serpine1) (mouse liver): 37.6 fold
- IL-1 Induction PDGF-induced KC (Gro1) (mouse liver): 7.3 fold
- IL-1 Induction PIM-1 protein kinase (Pim1) (mouse liver): 2.4 fold
- IL-1 Induction SHP (NrGb2) (mouse liver): 0.23 fold
- IL-1 Induction T-cell death associated gene (Tdag) (mouse liver): 2.5 fold
- IL-1 Induction T-cell specific GTPase (Tgtp) (mouse liver): 4.4 fold
- IL-1 Induction TGFB inducible early growth response (Tieg) (mouse liver): 0.31 fold
- IL-1 Induction Ubiquitin-conjugating E2 enzyme variant 2 (Ube2v2) (mouse liver): 5.0 fold
- IL-1 Induction VCAM-1 (Vcam1) (mouse liver): 5.2 fold
- IL-1 Induction adrenergic receptor, beta 2 (Adrb2) (mouse liver): 2.9 fold
- IL-1 Induction adrenomedullin (Adm) (mouse liver): 11.3 fold
- IL-1 Induction apoptosis inhibitor 1 (Birc2) (mouse liver): 12.2 fold
- IL-1 Induction apoptosis inhibitor 2 (Birc3) (mouse liver): 9.6 fold
- IL-1 Induction bcl-3 (Bcl3) (mouse liver): 11.6 fold
- IL-1 Induction c-JUN (Jun) (mouse liver): 4.8 fold
- IL-1 Induction calcium binding protein A6 (S100a6) (mouse liver): 2.4 fold
- IL-1 Induction calgranulin A (S100A8) (mouse liver): 10.4 fold
- IL-1 Induction calgranulin B (S100a9) (mouse liver): 12.5 fold
- IL-1 Induction cytokine-inducible kinase Fnk (Cnk) (mouse liver): 2.9 fold
- IL-1 Induction gly96 (ler3) (mouse liver): 42.1 fold
- IL-1 Induction growth factor receptor bound protein 7 (Grb7) (mouse liver): 0.27 fold
- IL-1 Induction guanylate nucleotide binding protein 2 (Gbp2) (mouse liver): 6.5 fold
- IL-1 Induction helix-loop-helix factor HES-1 (Hes1) (mouse liver): 0.09 fold
- IL-1 Induction heme oxygenase 1 (Hmox1) (mouse liver): 5.5 fold
- IL-1 Induction hsp68 (Hsp70-3) (mouse liver): 6.3 fold
- IL-1 Induction inducible 6-phosphofructo-2-kinase (AA163244) (mouse liver): 4.0 fold
- IL-1 Induction inhibitor of DNA binding 3 (idb3) (mouse liver): 6.0 fold
- IL-1 Induction insulin-like growth factor binding protein 1 (lgfbp1) (mouse liver): 4.0 fold
- IL-1 Induction intercrine (Scya7) (mouse liver): 12.4 fold
- IL-1 Induction interferon regulatory factor 1 (Irf1) (mouse liver): 10.5 fold
- IL-1 Induction junB (Junb) (mouse liver): 2.9 fold
- IL-1 Induction lipocalin 2 (Lcn2) (mouse liver): 5.5 fold
- IL-1 Induction lkB-beta (Nfkbib) (mouse liver): 4.0 fold
- IL-1 Induction m-myc (Myc) (mouse liver): 3.0 fold
- IL-1 Induction macrophage interferon inducible protein 10 (Scyb10) (mouse liver): 50.1 fold
- IL-1 Induction metalloproteinase-disintegrin (Adamts1) (mouse liver): 2.7 fold
- IL-1 Induction molecule possessing ankyrin-repeats induced by LPS (aa614971) (mouse liver): 22.7 fold
- IL-1 Induction myocyte-enriched calcineurin interactin protein (Dscrl) (mouse liver): 11.1 fold
- IL-1 Induction noctumin (Ccr4) (mouse liver): 7.7 fold
- IL-1 Induction p65 NF-kappa B (Rela) (mouse liver): 2.5 fold
- IL-1 Induction phospholipid scramblase 1 (Plscr1) (mouse liver): 4.4 fold
- IL-1 Induction protein tyrosine phosphatase 4a1 (Ptp4a1) (mouse liver): 2.0 fold
- IL-1 Induction regulator for ribosome resistance homolog (Rrr) (mouse liver): 2.8 fold
- IL-1 Induction relB (Relb) (mouse liver): 7.0 fold
- IL-1 Induction rhoB (Arhb) (mouse liver): 30.0 fold
- IL-1 Induction serum amyloid A 3 (Saa3) (mouse liver): 37.4 fold
- IL-1 Induction serum amyloid A 4 (Saa4) (mouse liver): 2.5 fold
- IL-1 Induction suppressor of cytokine signaling 2 (Cish2) (mouse liver): 2.7 fold
- IL-1 Induction suppressor of cytokine signaling 3 (Cish3) (mouse liver): 13.5 fold
- IL-1 Induction transglutaminase (Tgm2) (mouse liver): 2.2 fold
